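Each compound was tested at five concentrations against cells in 96-well plates for 48 hours. GI50: concentration for 50% inhibition of growth.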 Activity calls are given as the source filed them. Rule as the data show it: active = GI50 up to about 1.1 µM and inactive = higher.
Key:
Test in all cases: DTP human tumour cell line panel, 48 h
[1] = test system: MCF7
[2] = test system: HL-60
[3] = test system: BT-549
[4] = test system: NCI-H226
[5] = test system: CAKI-1
[6] = test system: MDA-MB-231
[7] = test system: OVCAR-8
[8] = test system: SNB-19
[9] = test system: SK-MEL-5
[10] = test system: SR
[11] = test system: TK-10
[12] = test system: IGROV-1
[13] = test system: T47D
[14] = test system: KM12
[15] = test system: SW-620
[16] = test system: UO-31
[17] = test system: A549
[18] = test system: SN12C
[19] = test system: EKVX

Measured: GI50

NC(=O)c1ncn(C2OC(CO)C(O)C2O)c1NC=O (stereo unspecified)
inactive: [1] > 100 µM | [2] > 100 µM | [3] > 100 µM | [4] > 100 µM | [5] > 100 µM | [6] > 100 µM | [7] > 100 µM | [8] > 100 µM | [9] > 100 µM | [10] > 100 µM | [11] > 100 µM | [12] > 100 µM | [13] > 100 µM | [14] > 100 µM | [15] > 100 µM | [16] > 100 µM | [17] > 100 µM | [18] > 100 µM | [19] > 100 µM

COC(=O)C1=C(N)C2=C(N)Oc3ccccc3C2CC1=C(C#N)C#N (stereo unspecified)
inactive: [1] 12.7 µM | [2] 29.2 µM | [3] 23.4 µM | [4] 44.3 µM | [5] 23.2 µM | [6] 17.5 µM | [7] 23.9 µM | [8] 18.6 µM | [9] 25.8 µM | [10] 12.6 µM | [11] 25.6 µM | [12] 18.4 µM | [13] 25.9 µM | [14] 15.7 µM | [15] 33.7 µM | [16] 19.2 µM | [17] 32.6 µM | [18] 29 µM | [19] 29.1 µM

COc1ccc2cc(CNCCCCCCNC(=O)Nc3cccc4ccccc34)ccc2c1
inactive: [1] > 100 µM | [2] > 100 µM | [3] > 100 µM | [4] > 100 µM | [5] > 100 µM | [6] > 100 µM | [7] > 100 µM | [8] > 100 µM | [9] > 100 µM | [10] > 100 µM | [11] > 100 µM | [12] > 100 µM | [13] > 100 µM | [14] > 100 µM | [15] > 100 µM | [17] > 100 µM | [18] > 100 µM | [19] > 100 µM

Cc1c(F)c(NC(=O)CN(C)C)c2c(=O)cc(-c3ccc(NC(=O)CN(C)C)c(F)c3)oc2c1F
inactive: [1] 13.4 µM | [2] 17.1 µM | [3] 17.9 µM | [4] 12.6 µM | [5] 10.9 µM | [6] 13.6 µM | [7] 17.8 µM | [8] 16 µM | [9] 15 µM | [10] 1.5 µM | [11] 7.57 µM | [12] 15.7 µM | [13] 24.2 µM | [14] 13.4 µM | [15] 16.2 µM | [16] 13.6 µM | [17] 18.6 µM | [18] 17.8 µM

COC1=C(OC)C23CCc4ccc(OC)c(O)c4C2(CCN3)CC1=O (stereo unspecified)
inactive: [1] > 100 µM | [2] > 100 µM | [3] > 100 µM | [4] > 100 µM | [5] > 100 µM | [6] > 100 µM | [7] > 100 µM | [8] > 100 µM | [9] > 100 µM | [10] > 100 µM | [11] > 100 µM | [12] > 100 µM | [13] > 100 µM | [14] > 100 µM | [15] > 100 µM | [17] > 100 µM | [18] > 100 µM | [19] > 100 µM

Cc1ccnc2c1c(=O)c1ccccc1n2C
inactive: [1] 32.9 µM | [2] 34.2 µM | [3] 27.1 µM | [4] 44.7 µM | [5] 22.1 µM | [6] 31.8 µM | [7] 34.4 µM | [8] 15.4 µM | [9] 18.7 µM | [10] 44.9 µM | [11] 26.3 µM | [12] 31 µM | [13] 38.9 µM | [14] 50.7 µM | [15] 35.5 µM | [16] 12.9 µM | [18] 30.5 µM | [19] 30.8 µM

CC(=O)O[C@@H](c1nccn1Cc1ccccc1)[C@H]1OC(C)(C)O[C@@H]1[C@H]1COC(C)(C)O1
inactive: [1] > 100 µM | [2] > 100 µM | [3] > 100 µM | [4] > 100 µM | [5] > 100 µM | [6] > 100 µM | [7] > 100 µM | [9] > 100 µM | [10] > 10 µM | [11] > 100 µM | [12] > 100 µM | [13] > 10 µM | [14] > 100 µM | [15] > 100 µM | [16] > 100 µM | [17] > 100 µM | [18] > 100 µM | [19] > 100 µM

O=C(NCCCCCCO)c1cccc2cc3ccccc3nc12
inactive: [1] 20.4 µM | [2] 25.5 µM | [3] 16.2 µM | [4] 16.6 µM | [5] 17.4 µM | [6] 21 µM | [7] 32.3 µM | [8] 15.8 µM | [9] 18.1 µM | [10] > 10 µM | [11] 16.6 µM | [12] 17.7 µM | [13] 10.8 µM | [14] 18.7 µM | [15] 29.9 µM | [17] 15.5 µM | [18] 24 µM | [19] 16.7 µM

From ChEMBL document CHEMBL1201862, “PubChem BioAssay data set” (2004)
